Test results from patent US5053337A, “DNA encoding an α2B -adrenergic receptor” (Neurogenetic Corporation, priority 1989, dated 1991).

Columns and labels:
[1] = molecular target: T1, human α2B -adrenergic receptor (NGC-α2B) (Homo sapiens, UniProt P18089)
T1 sequence (P18089 1-450): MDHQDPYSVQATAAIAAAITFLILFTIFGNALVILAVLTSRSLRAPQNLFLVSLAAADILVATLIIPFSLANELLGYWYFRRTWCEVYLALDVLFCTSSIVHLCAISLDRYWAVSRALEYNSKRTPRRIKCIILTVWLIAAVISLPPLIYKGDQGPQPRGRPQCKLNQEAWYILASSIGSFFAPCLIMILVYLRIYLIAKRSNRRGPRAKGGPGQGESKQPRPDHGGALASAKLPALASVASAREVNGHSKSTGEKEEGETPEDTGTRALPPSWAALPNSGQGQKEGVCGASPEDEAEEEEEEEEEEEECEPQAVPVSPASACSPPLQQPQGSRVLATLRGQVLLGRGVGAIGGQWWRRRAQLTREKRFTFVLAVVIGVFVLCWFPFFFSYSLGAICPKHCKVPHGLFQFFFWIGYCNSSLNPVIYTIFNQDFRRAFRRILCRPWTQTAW

[2] = molecular target: T1, human α2B -adrenergic receptor (NGC-α2B); remark: listed apart in the source
[3] = molecular target: T1, human α2B -adrenergic receptor (NGC-α2B); assay: biochemical

inhibition [1] | ability to compete with 3H-Rauwolscine for binding (in words) ([1]; pNGC-α2B transfected Cos-7 or Ltk- cell membranes) | SMILES | nH (Hill Coefficient) [2] | Ki [3]
15% | inability | NCCc1c[nH]c2ccc(O)cc12 [Serotonin] | – | –
– | – | O=C(c1ccc(F)cc1)C1CCN(CCn2c(=O)[nH]c3ccccc3c2=O)CC1 [Ketanserin] | 1.21 ± 0.12 | –
– | – | COc1cccc(OC)c1OCCNCC1COc2ccccc2O1 (centres unmarked) [WB-4101] | 1.5 | 0.055 µM
